Values of other authors in US7208484B2, “Method of synthesizing 1alpha-hydroxy-2-methylene-19-nor-homopregnacalciferol” (Wisconsin Alumni Research Foundation, priority 2002, dated 2007).

What was measured:
[1] = in vivo
[2] = tested on: HL-60 cell
[3] = molecular target: T1, vitamin D receptors (Homo sapiens, UniProt P11473); details: compared with 1α,25-dihydroxyvitamin D3
T1 sequence (P11473 1-427): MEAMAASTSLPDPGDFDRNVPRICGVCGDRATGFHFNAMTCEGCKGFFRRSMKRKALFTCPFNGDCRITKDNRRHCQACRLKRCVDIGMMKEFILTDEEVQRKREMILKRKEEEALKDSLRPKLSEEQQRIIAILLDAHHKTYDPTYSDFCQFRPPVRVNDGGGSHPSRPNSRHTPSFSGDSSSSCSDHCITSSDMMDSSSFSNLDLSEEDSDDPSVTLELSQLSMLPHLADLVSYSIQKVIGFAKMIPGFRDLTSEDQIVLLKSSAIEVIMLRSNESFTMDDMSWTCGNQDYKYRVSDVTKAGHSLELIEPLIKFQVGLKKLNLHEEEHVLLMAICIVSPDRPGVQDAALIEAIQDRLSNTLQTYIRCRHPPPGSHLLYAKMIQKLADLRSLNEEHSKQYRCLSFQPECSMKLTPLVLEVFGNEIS

In the case of `C=C1C(=CC=C2CCCC3(C)C2CCC3C(C)C)CC(O)CC1O` (stereo not drawn) [1α-hydroxy-20-methyl-pregnacalciferol], the calcemic activity [1] is listed as “essentially devoid of calcemic activity”, the “HL-60 cell differentiation ability” value [2] is listed as “some HL-60 cell differentiation ability” and the “binding to the receptor” value [3] is listed as “comparable binding to the receptor as 1α,25-dihydroxyvitamin D3”.
